#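 How tested: cells in 96-well plates exposed to compound for 48 hours at five concentrations. GI50 is the concentration that inhibits growth by half. TGI: concentration producing complete growth inhibition.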
# Key:
# Assay in all cases: growth of human tumour cells (NCI), 48 h
# 786-0 renal = tested on: 786-0 renal
# A498 renal = tested on: A498 renal
# A549 NSCLC = tested on: A549 NSCLC
# ACHN renal = tested on: ACHN renal
# CAKI-1 renal = tested on: CAKI-1 renal
# COLO 205 colon = tested on: COLO 205 colon
# DU-145 prostate = tested on: DU-145 prostate
# EKVX NSCLC = tested on: EKVX NSCLC
# HCC-2998 colon = tested on: HCC-2998 colon
# HCT-116 colon = tested on: HCT-116 colon
# HCT-15 colon = tested on: HCT-15 colon
# HL-60(TB) leukemia = tested on: HL-60(TB) leukemia
# HOP-62 NSCLC = tested on: HOP-62 NSCLC
# HOP-92 NSCLC = tested on: HOP-92 NSCLC
# HS 578T breast = tested on: HS 578T breast
# HT29 colon = tested on: HT29 colon
# IGROV1 ovarian = tested on: IGROV1 ovarian
# K-562 leukemia = tested on: K-562 leukemia
# KM12 colon = tested on: KM12 colon
# LOX IMVI melanoma = tested on: LOX IMVI melanoma
# M14 melanoma = tested on: M14 melanoma
# MALME-3M melanoma = tested on: MALME-3M melanoma
# MCF7 breast = tested on: MCF7 breast
# MDA-MB-231 breast = tested on: MDA-MB-231 breast
# MDA-MB-435 = tested on: MDA-MB-435
# MOLT-4 leukemia = tested on: MOLT-4 leukemia
# NCI-H226 lung = tested on: NCI-H226 lung
# NCI-H23 lung = tested on: NCI-H23 lung
# NCI-H460 lung = tested on: NCI-H460 lung
# NCI-H522 lung = tested on: NCI-H522 lung
# NCI/ADR-RES ovarian = tested on: NCI/ADR-RES ovarian
# OVCAR-3 ovarian = tested on: OVCAR-3 ovarian
# OVCAR-4 ovarian = tested on: OVCAR-4 ovarian
# OVCAR-5 ovarian = tested on: OVCAR-5 ovarian
# OVCAR-8 ovarian = tested on: OVCAR-8 ovarian
# PC-3 prostate = tested on: PC-3 prostate
# RPMI-8226 leukemia = tested on: RPMI-8226 leukemia
# RXF 393 renal = tested on: RXF 393 renal
# SF-268 CNS = tested on: SF-268 CNS
# SF-295 CNS = tested on: SF-295 CNS
# SF-539 CNS = tested on: SF-539 CNS
# SK-MEL-2 melanoma = tested on: SK-MEL-2 melanoma
# SK-MEL-28 melanoma = tested on: SK-MEL-28 melanoma
# SK-MEL-5 melanoma = tested on: SK-MEL-5 melanoma
# SK-OV-3 ovarian = tested on: SK-OV-3 ovarian
# SNB-19 CNS = tested on: SNB-19 CNS
# SNB-75 CNS = tested on: SNB-75 CNS
# SR leukemia = tested on: SR leukemia
# SW-620 colon = tested on: SW-620 colon
# TK-10 renal = tested on: TK-10 renal
# U251 CNS = tested on: U251 CNS
# UACC-62 melanoma = tested on: UACC-62 melanoma
# UO-31 renal = tested on: UO-31 renal
# BT-549 breast = tested on: BT-549 breast
# CCRF-CEM leukemia = tested on: CCRF-CEM leukemia
# SN12C renal = tested on: SN12C renal
# UACC-257 melanoma = tested on: UACC-257 melanoma
structure (smiles),measurement,setting,value
Cc1ccc(S(=O)(=O)NC(=O)NCCc2cnc[nH]2)cc1,TGI,786-0 renal,> 100 µM
same,TGI,A498 renal,> 100 µM
same,TGI,A549 NSCLC,> 100 µM
same,TGI,ACHN renal,> 100 µM
same,TGI,CAKI-1 renal,> 100 µM
same,TGI,COLO 205 colon,> 100 µM
same,TGI,DU-145 prostate,> 100 µM
same,TGI,EKVX NSCLC,> 100 µM
same,TGI,HCC-2998 colon,> 100 µM
same,TGI,HCT-116 colon,> 100 µM
same,TGI,HCT-15 colon,> 100 µM
same,TGI,HL-60(TB) leukemia,> 100 µM
same,TGI,HOP-62 NSCLC,> 100 µM
same,TGI,HOP-92 NSCLC,> 100 µM
same,TGI,HS 578T breast,> 100 µM
same,TGI,HT29 colon,> 100 µM
same,TGI,IGROV1 ovarian,> 100 µM
same,TGI,K-562 leukemia,> 100 µM
same,TGI,KM12 colon,> 100 µM
same,TGI,LOX IMVI melanoma,> 100 µM
same,TGI,M14 melanoma,> 100 µM
same,TGI,MALME-3M melanoma,> 100 µM
same,TGI,MCF7 breast,> 100 µM
same,TGI,MDA-MB-231 breast,> 100 µM
same,TGI,MDA-MB-435,> 100 µM
same,TGI,MOLT-4 leukemia,> 100 µM
same,TGI,NCI-H226 lung,> 100 µM
same,TGI,NCI-H23 lung,> 100 µM
same,TGI,NCI-H460 lung,> 100 µM
same,TGI,NCI-H522 lung,> 100 µM
same,TGI,NCI/ADR-RES ovarian,> 100 µM
same,TGI,OVCAR-3 ovarian,> 100 µM
same,TGI,OVCAR-4 ovarian,> 100 µM
same,TGI,OVCAR-5 ovarian,> 100 µM
same,TGI,OVCAR-8 ovarian,> 100 µM
same,TGI,PC-3 prostate,> 100 µM
same,TGI,RPMI-8226 leukemia,> 100 µM
same,TGI,RXF 393 renal,> 100 µM
same,TGI,SF-268 CNS,> 100 µM
same,TGI,SF-295 CNS,> 100 µM
same,TGI,SF-539 CNS,> 100 µM
same,TGI,SK-MEL-2 melanoma,> 100 µM
same,TGI,SK-MEL-28 melanoma,> 100 µM
same,TGI,SK-MEL-5 melanoma,> 100 µM
same,TGI,SK-OV-3 ovarian,> 100 µM
same,TGI,SNB-19 CNS,> 100 µM
same,TGI,SNB-75 CNS,> 100 µM
same,TGI,SR leukemia,> 100 µM
same,TGI,SW-620 colon,> 100 µM
same,TGI,TK-10 renal,> 100 µM
same,TGI,U251 CNS,> 100 µM
same,TGI,UACC-62 melanoma,> 100 µM
same,TGI,UO-31 renal,> 100 µM
CCOC(=O)c1cc(C(=O)c2cc(OC)c(OC)c(OC)c2)n2ncccc12,GI50,786-0 renal,2.17 µM
same,TGI,786-0 renal,> 100 µM
same,GI50,A498 renal,0.0466 µM
same,TGI,A498 renal,0.742 µM
same,GI50,A549 NSCLC,0.621 µM
same,TGI,A549 NSCLC,> 100 µM
same,GI50,ACHN renal,1.34 µM
same,TGI,ACHN renal,> 100 µM
same,GI50,BT-549 breast,0.761 µM
same,TGI,BT-549 breast,> 100 µM
same,GI50,CAKI-1 renal,0.374 µM
same,TGI,CAKI-1 renal,> 100 µM
same,GI50,CCRF-CEM leukemia,0.297 µM
same,TGI,CCRF-CEM leukemia,> 100 µM
same,GI50,COLO 205 colon,0.23 µM
same,TGI,COLO 205 colon,1.33 µM
same,GI50,DU-145 prostate,0.37 µM
same,TGI,DU-145 prostate,> 100 µM
same,GI50,EKVX NSCLC,0.65 µM
same,TGI,EKVX NSCLC,> 100 µM
same,GI50,HCC-2998 colon,2.1 µM
same,TGI,HCC-2998 colon,> 100 µM
same,GI50,HCT-116 colon,0.276 µM
same,TGI,HCT-116 colon,> 100 µM
same,GI50,HCT-15 colon,0.251 µM
same,TGI,HCT-15 colon,> 100 µM
same,GI50,HL-60(TB) leukemia,0.251 µM
same,TGI,HL-60(TB) leukemia,0.763 µM
same,GI50,HOP-62 NSCLC,0.63 µM
same,TGI,HOP-62 NSCLC,> 75.6 µM
same,GI50,HOP-92 NSCLC,48.5 µM
same,TGI,HOP-92 NSCLC,> 100 µM
same,GI50,HS 578T breast,0.309 µM
same,TGI,HS 578T breast,26.1 µM
same,GI50,HT29 colon,0.245 µM
same,TGI,HT29 colon,> 100 µM
same,GI50,IGROV1 ovarian,3.47 µM
same,TGI,IGROV1 ovarian,> 100 µM
same,GI50,K-562 leukemia,0.124 µM
same,TGI,K-562 leukemia,> 100 µM
same,GI50,KM12 colon,0.342 µM
same,TGI,KM12 colon,> 100 µM
same,GI50,LOX IMVI melanoma,2.46 µM
same,TGI,LOX IMVI melanoma,> 100 µM
same,GI50,M14 melanoma,0.229 µM
same,TGI,M14 melanoma,> 100 µM
same,TGI,MALME-3M melanoma,> 100 µM
same,GI50,MCF7 breast,0.131 µM
same,TGI,MCF7 breast,> 100 µM
same,GI50,MDA-MB-231 breast,1.82 µM
same,TGI,MDA-MB-231 breast,> 100 µM
same,GI50,MDA-MB-435,0.0314 µM
same,TGI,MDA-MB-435,0.117 µM
same,GI50,MOLT-4 leukemia,0.575 µM
same,TGI,MOLT-4 leukemia,> 100 µM
same,GI50,NCI-H226 lung,28.2 µM
same,TGI,NCI-H226 lung,> 100 µM
same,GI50,NCI-H23 lung,0.707 µM
same,TGI,NCI-H23 lung,> 100 µM
same,GI50,NCI-H460 lung,0.335 µM
same,TGI,NCI-H460 lung,> 100 µM
same,GI50,NCI-H522 lung,0.29 µM
same,TGI,NCI-H522 lung,> 21.7 µM
same,GI50,NCI/ADR-RES ovarian,0.237 µM
same,TGI,NCI/ADR-RES ovarian,> 42.9 µM
same,GI50,OVCAR-3 ovarian,0.145 µM
same,TGI,OVCAR-3 ovarian,1.84 µM
same,GI50,OVCAR-4 ovarian,0.805 µM
same,TGI,OVCAR-4 ovarian,> 100 µM
same,GI50,OVCAR-5 ovarian,2.72 µM
same,TGI,OVCAR-5 ovarian,> 100 µM
same,GI50,OVCAR-8 ovarian,0.584 µM
same,TGI,OVCAR-8 ovarian,> 100 µM
same,GI50,PC-3 prostate,0.289 µM
same,TGI,PC-3 prostate,> 100 µM
same,GI50,RPMI-8226 leukemia,0.316 µM
same,GI50,RXF 393 renal,0.215 µM
same,TGI,RXF 393 renal,1.84 µM
same,GI50,SF-268 CNS,3.02 µM
same,TGI,SF-268 CNS,> 100 µM
same,GI50,SF-295 CNS,0.219 µM
same,TGI,SF-295 CNS,13.9 µM
same,GI50,SF-539 CNS,0.292 µM
same,TGI,SF-539 CNS,2.28 µM
same,GI50,SK-MEL-2 melanoma,0.466 µM
same,TGI,SK-MEL-2 melanoma,> 100 µM
same,GI50,SK-MEL-28 melanoma,4.68 µM
same,TGI,SK-MEL-28 melanoma,> 100 µM
same,GI50,SK-MEL-5 melanoma,0.247 µM
same,TGI,SK-MEL-5 melanoma,> 100 µM
same,GI50,SK-OV-3 ovarian,0.472 µM
same,TGI,SK-OV-3 ovarian,> 95.1 µM
same,GI50,SN12C renal,0.821 µM
same,TGI,SN12C renal,> 100 µM
same,GI50,SNB-19 CNS,0.705 µM
same,TGI,SNB-19 CNS,> 100 µM
same,GI50,SNB-75 CNS,0.175 µM
same,TGI,SNB-75 CNS,42.4 µM
same,GI50,SR leukemia,0.126 µM
same,TGI,SR leukemia,> 100 µM
same,GI50,SW-620 colon,0.185 µM
same,TGI,SW-620 colon,> 100 µM
same,GI50,TK-10 renal,26.4 µM
same,TGI,TK-10 renal,> 100 µM
same,GI50,U251 CNS,0.444 µM
same,TGI,U251 CNS,37.1 µM
same,GI50,UACC-257 melanoma,65.7 µM
same,TGI,UACC-257 melanoma,> 100 µM
same,GI50,UACC-62 melanoma,0.196 µM
same,TGI,UACC-62 melanoma,> 100 µM
same,GI50,UO-31 renal,0.782 µM
same,TGI,UO-31 renal,> 100 µM
